From patent publication US5814512A, “Microorganism having all the identifying characteristics of absida ferm BP-4599 for producing purpurogallin derivatives” (Hoffmann-La Roche Inc., priority 1994, dated 1998)
One block for each molecule: values may come before it.

Experiments:
[1] = molecular target: T1, catecholamine-O-methyltransferase (COMT), human liver enzyme (Homo sapiens, UniProt P21964); assay: COMT inhibitory activity (O-methylation of 1,2-dihydroxybenzene with S-adenosyl-L-[methyl-3H]methionine, crude human liver enzyme); format: biochemical; conditions: COMT inhibition; crude enzyme from human liver (8.3 μg protein); pH 8.0; 37° C., 30 minutes; 100 μM 1,2-dihydroxybenzene
T1 construct: prepared from human liver; from tissue; host or cells: human liver, crude enzyme
T1 sequence (P21964 1-221 isoform P21964-2): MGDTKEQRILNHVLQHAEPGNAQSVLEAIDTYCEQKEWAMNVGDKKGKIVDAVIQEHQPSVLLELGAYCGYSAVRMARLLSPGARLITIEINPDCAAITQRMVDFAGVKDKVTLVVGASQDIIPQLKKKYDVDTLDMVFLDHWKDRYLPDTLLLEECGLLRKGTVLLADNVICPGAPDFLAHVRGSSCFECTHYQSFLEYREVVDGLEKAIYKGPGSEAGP
Procedure: The assay mixture (120 μl) in a mini scintillation vial contained 68 mM K-PO4 buffer (pH 8.0), 10 mM MgCl2, 2.2 mM dithiothreitol, 7.8 U/ml adenosine deaminase, 5 mM EGTA, 100 μM 1,2-dihydroxybenzene, 183 μM S-adenosyl-L-[methyl-^3 H] […] Ci/mol, Amersham) and human liver enzyme. In the standard assay, 5 μl of inhibitor was added to the incubation mixture and the reaction was started with the supplementation of crude enzyme (8.3 μg protein) prepared from human liver. After incubation at 37° C. for 30 minutes, the reaction was stopped by immersion of the vials in ice water. 100 μl of 1M guaiacol HCl was added and the samples were extracted with 2 ml of a scintillation cocktail of hexane/toluene (4:1). The radioactivity of O^3 H-methylated products were measured by a liquid scintillation counter (LSC1100, Aloka).

[2] = Acute toxicity; conditions: in vivo
[3] = Solubility; format: physicochemical

SMILES: COc1c(O)cc2cc(C(=O)O)cc(O)c(=O)c2c1O [8-O-methylpurpurogallincarboxylic acid]
- IC50 [1]: 2.23 µM
- Acute toxicity [2]: not observed
- Solubility ([3]; in Dimethylsulfoxide (DMSO)): Soluble
- Solubility ([3]; in H2 O): Slightly soluble
- Solubility ([3]; in Methanol): Soluble

- IC50 [1]: 0.455 µM
SMILES: CCCOC(=O)c1cc(O)c(O)c(O)c1 [Propyl gallate]

SMILES: O=c1cccccc1O [Tropolone]
- IC50 [1]: 963 µM
